In US12250948B2, “Methods for the control of arthropods using near-ideal gas phase hydrogen peroxide” (Synexis LLC, priority 2013, dated 2025):
Where two headings read alike, the source gives them in different places.

Columns and labels:
Stink Bugs = settings: PHPG 0.3 ppm
[1] = system: arthropods including crickets, ants, spiders, and house flies; experiment: Real world test of PHPG in 1400 sq ft Pool House; settings: after 27 hours
Text: All PHPG concentration readings take place with Draeger products. A Pac III, Polytron 7000 or Draeger Tubes are utilized in all tests, generally according to manufacturer's instructions. […] Most commonly, Draeger Tubes are used after clipping on both ends and placement in a ACCURO™ Pump. Per manufacturer instructions, the tubes are pumped 100 times and the level of PHPG determined by observing the color change in the crystals.
Two PHPG generating devices were placed in the space for an initial cleansing and to establish levels.

Cockroaches = system: Cockroaches
Method: (§1) The effects of Purified Hydrogen Peroxide Gas (PHPG) on selected arthropod species is performed to determine the efficacy on controlling an arthropod using the indirect dispersion of PHPG in a space. In these experiments, the knockdown and mortality rates in mosquitoes, bed bugs, termites, ants, moths, house flies, and spiders is assessed.
(§2) Black wood ants, house flies (adult and pupae), large saturniid moths, termites (soldier and living), and cellar spiders are obtained from Carolina Supplies and shipped overnight. All organisms are fed prior to shipping from Carolina Supplies. Bed bugs and mosquitoes are sourced locally due to government shipping restrictions. The test samples are stored in a cabinet at ambient temperature and humidity until use in the study. The samples are labeled and color-coded for easy identification. In certain experiments, specimens of wild caught arthropods are used in the controlled experiments, including for example Brazilian cockroaches.
(§3) All testing is conducted in a sealed, Static Dissipative PVC chamber, Terra Universal (Fullerton, CA) Model 3305-10F: 59 inches W×24 inches D×25 inches H. With additional airlock Terra Universal Model 1680-81B 11.5 inches W×10 inches D×10.5 inches 1-1. Arthropods are placed inside transfer containers (pint size paper containers). The top and bottom diameters of these containers are 3.75 and 2.87 inches respectively with a height of 3.5 inches. All arthropods are released once the airlock is sealed. Arthropods are allowed to recover following PHPG exposure and observed in 8 oz glass Pyrex@(Tewksbury, MA) containers with sealed glass lids.
(§4) Three replicates of ten of each arthropod are subjected to PHPG. An additional three replicates are subjected to a non PHPG producing device and serve as untreated controls. The arthropods are observed for knockdown at 0.5, 1, 2, 3, 4, 5, and 15 minutes. Mortality counts are taken after 24 hours of PHPG exposure. If at 24 hours mortality is less 90%, additional readings are taken following 48 hours of PHPG exposure. The test samples are exposed to the test environment containing PHPG until a 90% knockdown is achieved. The test samples are provided PHPG emitted from a PHPG producing device in the center of the test chamber. Time frames are recorded for each replicate. Just prior to treatment the arthropods are transferred into the transfer containers. Forty eight hours after treatment, they are removed from the treatment chamber and transferred to recovery containers and covered with screened lids for observation.
(§5) Knockdown occurs when an arthropod cannot right itself when placed on its back but is still able to move at least one body part. The arthropods are then transferred from the treatment chamber to recovery containers. Another knockdown/mortality observation is made 15 minutes later.
(§6) If all ten arthropods are recorded as knocked down or deceased during any observation before 15 minutes have elapsed, subsequent observations are not made. Mortality counts are made at 24 hours, and 48 hours or sooner (if applicable). All dead arthropods are confirmed by probing or agitation to make sure that they are unable to move (any that show movement visible to the naked eye are recorded as moribund). Arthropods that can crawl or right themselves when placed on their backs are recorded as being alive.
(§7) After the knockdown counts are complete, the arthropods are maintained in the laboratory at ambient temperature and humidity conditions with a normal 8:16 light:dark cycle for 24 hours. Additional mortality readings are taken at 48 hours if less than 90% mortality is recorded at 24 hours. A 48 hour reading depends upon control mortality remaining less than 10%. Temperature and humidity are recorded in the treatment area, and in the laboratory where the arthropods are subsequently held for the duration of the test.

Bedbugs = settings: PHPG 0.6 ppm
Method: as §1, §2, §3, §4, §5, §6, §7

Tarantula = system: Tarantula
Method: as §1, §2, §3, §4, §5, §6, §7

Cellar Spiders = settings: PHPG 1.0 ppm
Method: as §1, §2, §3, §4, §5, §6, §7

Carpenter Ants = settings: PHPG 1.0 ppm
Method: as §1, §2, §3, §4, §5, §6, §7

House Fly Pupae = settings: PHPG 0.5 ppm
Method: as §1, §2, §3, §4, §5, §6, §7

Termites = system: Termites
Method: as §1, §2, §3, §4, §5, §6, §7

Fruit Flies = settings: PHPG 0.3 ppm, exposure 72 hours
Method: as §1, §2, §3, §4, §5, §6, §7

Deer Ticks = settings: PHPG 0.6 ppm
Method: as §1, §2, §3, §4, §5, §6, §7

Wolf Spiders = settings: PHPG 1.0 ppm
Method: as §1, §2, §3, §4, §5, §6, §7

Yellow Jackets and Nest = settings: PHPG 0.3 ppm
Brown Dog Tick = experiment: Laboratory chamber test of PHPG, knockdown and mortality; format: in vivo; settings: PHPG 0.6 ppm
Method: as §1, §2, §3
Three replicates of ten of each arthropod are subjected to PHPG. […] If at 24 hours mortality is less 90%, additional readings are taken following 48 hours of PHPG exposure. […] Time frames are recorded for each replicate. […]
If all ten arthropods are recorded as knocked down or deceased during any observation before 15 minutes have elapsed, subsequent observations are not made. […] All dead arthropods are confirmed by probing or agitation to make sure that they are unable to move (any that show movement visible to the naked eye are recorded as moribund). Arthropods that can crawl or right themselves when placed on their backs are recorded as being alive.
as §7

Crickets = settings: PHPG 0.4 ppm
House Flies = settings: PHPG 0.2 ppm
Mosquitoes = settings: PHPG 0.2 ppm

OO [PHPG, Purified Hydrogen Peroxide Gas]
Attempt to Flee? (Stink Bugs): Yes | Percent Killed (Stink Bugs; exposure 24 hours): 100% | Live insects observed ([1]; PHPG 0.4 ppm): No live insects were observed | Number of arthropods confirmed dead ([1]; two PHPG generating devices, PHPG 0.4 ppm at 27 hours): 109 | Attempt to Flee? (Cockroaches; Cockroaches, PHPG 0.6 ppm): No | Percent Killed (Cockroaches; Cockroaches, PHPG 0.6 ppm, exposure 24 Hours): 0% | Observations (Cockroaches; Cockroaches, low level of PHPG (0.6 ppm), did not react to the gas): Appeared resistant at low | Resistance to PHPG (Cockroaches; adult cockroaches, PHPG levels up to 0.6 ppm for 24 hours): resistant | Observations: nymphs (Bedbugs; Bedbug nymphs hatched from immature eggs): Nymphs died in seconds. | Observations: all bedbugs reacted within (Bedbugs; Bedbugs): fifteen seconds. | Observations: final outcome (Bedbugs; Bedbugs): All died over time. | Percent Killed (Bedbugs; Bedbugs, exposure 3 hours): 50% | Percent Killed (Bedbugs; Bedbugs, exposure 60 hours): 100% | Attempt to Flee? (Bedbugs; Bedbugs, cell continues 'Went Dormant'): No, | Attempt to Flee? (Tarantula; Tarantula, PHPG 0.6 ppm): No | Percent Killed (Tarantula; Tarantula, PHPG 0.6 ppm, exposure 24 hours): 0% | Observations (Tarantula; Tarantula, PHPG 0.6 ppm, did not react to the gas): Appeared resistant. Did not | Resistance to PHPG (Tarantula; tarantula spiders, PHPG levels up to 0.6 ppm for 24 hours): resistant | Attempt to Flee? (Cellar Spiders): Yes | Observations: smallest spiders died within (Cellar Spiders): one hour. Larger spiders | Percent Killed (Cellar Spiders; exposure 24 Hours): 33% | Attempt to Flee? (Carpenter Ants): Yes | Observations: order of death (Carpenter Ants): exit. Smallest ants died first. | Percent Killed (Carpenter Ants; exposure 24 Hours): 15% | Observations: ants collected in areas where fresh air was seeping into the chamber and remained inactive (Carpenter Ants; when unable to flee): When unable 50% collected | Observations: hatching (House Fly Pupae; 100 pupae expected to hatch within 3 days, within one week): within 3 days. Did not hatch | Percent Killed (House Fly Pupae; House Fly Pupae, exposure 7 days): 100% | Attempt to Flee? (Termites; PHPG 0.1 ppm, cell continues 'Then went dormant'): Yes, | Percent Killed (Termites; PHPG 0.1 ppm, exposure 24 hours): 100% | Observations (Termites; very low exposure (PHPG 0.1 ppm), sought shelter): went dormant. Larger | Percent Killed (Fruit Flies): 100% | Attempt to Flee? (Deer Ticks): Yes | Percent Killed (Deer Ticks; exposure 3 hours): 70% | Percent Killed (Deer Ticks; exposure 60 hours): 100% | Observations (Deer Ticks; until they succumbed): All ticks searched for an exit | Attempt to Flee? (Wolf Spiders): Yes | Observations (Wolf Spiders): Very susceptible; and | Percent Killed (Wolf Spiders; exposure 1 hour): 100% | Observations: unhatched yellow jackets in the nest (Yellow Jackets and Nest; 1 day, nest was hatching): jackets in the nest died. | Percent Killed (Yellow Jackets and Nest; Yellow Jackets and Nest, exposure 1 day): 100% | Attempt to Flee? (Yellow Jackets and Nest; Yellow Jackets): Yes | Percent Killed (Lice and nits; Lice and nits, PHPG 0.2 ppm, exposure 2 days): 100% | Observations: bedding and other exposed items (Lice and nits; Lice and nits, PHPG 0.2 ppm, within two days): items fully treated within two | Elimination of all signs of lice (Lice and nits; child subject, from initiation of PHPG treatment): lice free within two days | Attempt to Flee? (Brown Dog Tick): Yes | Percent Killed (Brown Dog Tick; exposure 3 hours): 70% | Percent Killed (Brown Dog Tick; exposure 60 hours): 100% | Observations (Brown Dog Tick; until they succumbed): All ticks searched for an exit | Percent Killed (Crickets; exposure 21 hours, garden house): 100% | Attempt to Flee? (Crickets; tried to exit through HVAC vents): Yes | Attempt to Flee? (House Flies): Yes | Observations: final outcome (House Flies): All died within day | Observations: first deaths within (House Flies): one hour | Percent Killed (House Flies; exposure 24 hours): 100% | Attempt to Flee? (Mosquitoes): Yes | Percent Killed (Mosquitoes; exposure 2 hours): 100%
